How the values were obtained:
Assay in all cases: relative viability (nuclei count vs DMSO), 5 days (fraction); higher = more cells survive
[1] = compound: Nc1nc2[nH]cc(CCc3ccc(C(=O)N[C@@H](CCC(=O)O)C(=O)O)cc3)c2c(=O)[nH]1 [Pemetrexed] + Cc1nc(Nc2ncc(C(=O)Nc3c(C)cccc3Cl)s2)cc(N2CCN(CCO)CC2)n1 [Dasatinib] (partner 0.075 µM)
Procedure, shortened: (§1)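 Each reported value is a median over duplicate plates. It expresses relative viability: treated-well nuclei count divided by vehicle-well nuclei count. Lung cancer cell lines in 1536-well plates were dosed by pin tool a day after seeding, alone with one drug or with a fixed anchor-drug dose plus five library-drug doses (not always all listed) in √10 steps, and nuclei were counted after 5 days.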

[2] = compound: Nc1nc2[nH]cc(CCc3ccc(C(=O)N[C@@H](CCC(=O)O)C(=O)O)cc3)c2c(=O)[nH]1 [Pemetrexed] + CCNC(=O)c1noc(-c2cc(C(C)C)c(O)cc2O)c1-c1ccc(CN2CCOCC2)cc1 [Luminespib] (partner 0.01 µM)
Procedure, shortened: as §1

[3] = compound: Nc1nc2[nH]cc(CCc3ccc(C(=O)N[C@@H](CCC(=O)O)C(=O)O)cc3)c2c(=O)[nH]1 [Pemetrexed] + O=C(CCCCCCC(=O)Nc1ccccc1)NO [Vorinostat] (partner 1 µM)
Procedure, shortened: as §1

[4] = compound: CC[C@H](Nc1ncnc2[nH]cnc12)c1nc2cccc(F)c2c(=O)n1-c1ccccc1 [Idelalisib] + CCNC(=O)c1noc(-c2cc(C(C)C)c(O)cc2O)c1-c1ccc(CN2CCOCC2)cc1 [Luminespib] (partner 0.01 µM)
Procedure, shortened: as §1

Cell Line	relative viability ([1]; first compound 0.002 µM)	relative viability ([1]; first compound 0.006325 µM)	relative viability ([1]; first compound 0.02 µM)	relative viability ([1]; first compound 0.06325 µM)	relative viability ([1]; first compound 0.2 µM)	relative viability ([2]; first compound 0.002 µM)	relative viability ([2]; first compound 0.006325 µM)	relative viability ([2]; first compound 0.02 µM)	relative viability ([2]; first compound 0.06325 µM)	relative viability ([2]; first compound 0.2 µM)	relative viability ([3]; first compound 0.002 µM)	relative viability ([3]; first compound 0.006325 µM)	relative viability ([3]; first compound 0.02 µM)	relative viability ([3]; first compound 0.06325 µM)	relative viability ([3]; first compound 0.2 µM)	relative viability ([4]; first compound 0.04 µM)	relative viability ([4]; first compound 0.1265 µM)	relative viability ([4]; first compound 0.4 µM)	relative viability ([4]; first compound 1.265 µM)	relative viability ([4]; first compound 4 µM)
NCI-H1666	0.778	0.857	0.818	0.754	0.585	1	0.942	1.01	1.01	0.839	1.01	0.95	1.03	0.924	0.863	1.09	1.13	1.06	1.01	1.04
SK-MES-1	0.411	0.367	0.516	0.328	0.339	0.649	0.56	0.965	0.688	0.773	1.07	0.994	1.18	1.11	0.993	0.847	0.689	0.591	0.546	0.542
NCI-H2023	0.506	0.505	0.6	0.433	0.195	0.717	0.656	0.932	0.483	0.227	0.306	0.595	0.676	0.372	0.15	0.644	0.784	0.79	0.87	0.67
COR-L 105	0.349	0.216	0.399	0.363	0.398	0.77	0.834	0.673	0.862	0.729	0.954	0.784	0.849	0.857	0.688	0.695	0.783	0.814	0.699	0.573
NCI-H2342	0.257	0.322	0.351	0.325	0.321	0.678	0.8	0.676	0.799	0.788	0.824	0.831	0.749	0.773	0.843	0.764	0.757	0.629	0.72	0.496
NCI-H838	0.361	0.285	0.262	0.212	0.218	0.234	0.246	0.309	0.197	0.156	0.72	0.727	0.781	0.661	0.308	0.235	0.346	0.273	0.339	0.243
SW 1573	0.524	0.448	0.735	0.593	0.42	0.285	0.443	0.249	0.125	0.176	0.697	0.541	1.04	0.747	0.653	0.275	0.171	0.219	0.17	0.365

Source: the supplement of paper PMC10307832
